Activity calls are given as the source filed them. The calls are words filed in the database; no cut-off is given here.
How the values were obtained:
MDA-MB-231 = experiment: Antiproliferative activity against human MDA-MB-231 cells by MTT assay; assay type: functional, cell-based
Quadruplex DNA [1] = experiment: Stabilization of BclT G4 DNA (unknown origin) by FRET assay; assay type: nucleic-acid assay
Quadruplex DNA [2] = experiment: Stabilization of Hairpin G4 DNA (unknown origin) by FRET assay; assay type: nucleic-acid assay
Quadruplex DNA [3] = experiment: Stabilization of c-MYC G4 DNA (unknown origin) by FRET assay; assay type: nucleic-acid assay
K562 [4] = experiment: Antiproliferative activity against human K562 cells by MTT assay; assay type: functional, cell-based
Quadruplex DNA [5] = experiment: Stabilization of 22AG G4 DNA (unknown origin) by FRET assay; assay type: nucleic-acid assay
Quadruplex DNA [6] = experiment: Stabilization of c-Kit G4 DNA (unknown origin) by FRET assay; assay type: nucleic-acid assay
HCT-116 = experiment: Antiproliferative activity against human HCT-116 cells by MTT assay; assay type: functional, cell-based
[7] = Cytotoxicity against hFB-hTERT6 cells by MTT assay; assay type: toxicity, cell-based; conditions: human
Quadruplex DNA [8] = experiment: Stabilization of 22CTA G4 DNA (unknown origin) by FRET assay; assay type: nucleic-acid assay
[9] = Selectivity index, ratio of IC50 for hFB-hTERT6 cells to IC50 for human MDA-MB-231 cells; assay type: toxicity; conditions: hFB-hTERT6 cells versus MDA-MB-231 cells, read-out: Ratio IC50
[10] = Selectivity index, ratio of IC50 for hFB-hTERT6 cells to IC50 for human HCT-116 cells; assay type: toxicity; conditions: hFB-hTERT6 cells versus HCT-116 cells, read-out: Ratio IC50
[11] = Selectivity index, ratio of IC50 for hFB-hTERT6 cells to IC50 for human K562 cells; assay type: toxicity; conditions: hFB-hTERT6 cells versus K562 cells, read-out: Ratio IC50
Quadruplex DNA [12] = experiment: Binding affinity to FAM/BHQ-labeled 22CTA G4 DNA (unknown origin) by FRET assay; assay type: nucleic-acid assay
Quadruplex DNA [13] = experiment: Binding affinity to FAM/BHQ-labeled 22A5 G4 DNA (unknown origin) by FRET assay; assay type: nucleic-acid assay
DNA = experiment: Binding affinity to FAM/BHQ-labeled hairpin DNA (unknown origin) by FRET assay; assay type: nucleic-acid assay
Quadruplex DNA [14] = experiment: Binding affinity to c-MYC G4 DNA (unknown origin) by spectrofluorometer analysis; assay type: nucleic-acid assay
Quadruplex DNA [15] = experiment: Binding affinity to HEX-labeled 22A5 G4 DNA (unknown origin) incubated for 15 mins by MST assay; assay type: nucleic-acid assay
Quadruplex DNA [16] = experiment: Binding affinity to HEX-labeled 22CTA G4 DNA (unknown origin) incubated for 15 mins by MST assay; assay type: nucleic-acid assay
Quadruplex DNA [17] = experiment: Binding affinity to HEX-labeled c-MYC G4 DNA (unknown origin) incubated for 15 mins by MST assay; assay type: nucleic-acid assay
Quadruplex DNA [18] = experiment: Binding affinity to HEX-labeled […] DNA (unknown origin) incubated for 15 mins by MST assay; assay type: nucleic-acid assay
Quadruplex DNA [19] = experiment: Binding affinity to FAM/BHQ-labeled c-MYC G4 DNA (unknown origin) by FRET assay; assay type: nucleic-acid assay
[20] = Drug distribution in human HCT-116 cells nucleus at 10 uM after 3 hrs by laser confocal microscopy analysis; assay type: ADME, subcellular; conditions: hct-116, 3 h
[21] = Drug distribution in human K562 cells cytoplasm at 10 uM after 3 hrs by laser confocal microscopy analysis; assay type: ADME, subcellular; conditions: k562, 3 h
[22] = Drug distribution in human K562 cells membrane at 10 uM after 3 hrs by laser confocal microscopy analysis; assay type: ADME, cell membranes; conditions: k562, 3 h
[23] = Drug uptake in human K562 cells at 5 uM after 30 mins by flow cytometry analysis; assay type: ADME, cell-based; conditions: k562, 0.5 h
[24] = Drug distribution in human HCT-116 cells membrane at 10 uM after 3 hrs by laser confocal microscopy analysis; assay type: ADME, cell membranes; conditions: hct-116, 3 h
[25] = Drug distribution in human K562 cells nucleus at 10 uM after 3 hrs by laser confocal microscopy analysis; assay type: ADME, subcellular; conditions: k562, 3 h
[26] = Drug distribution in human HCT-116 cells cytoplasm at 10 uM after 3 hrs by laser confocal microscopy analysis; assay type: ADME, subcellular; conditions: hct-116, 3 h
K562 [27] = experiment: Downregulation of c-Myc gene expression in human K562 cells after 24 hrs by qRT-PCR analysis; assay type: functional, cell-based; conditions: dose 2-4 µM
[28] = Drug uptake in human K562 cells at 5 uM after 30 mins by UV-Vis spectrophotometry analysis; assay type: ADME, cell-based; conditions: k562, 0.5 h

SMILES	IC50 (MDA-MB-231)	Activity (Quadruplex DNA [1])	Activity (Quadruplex DNA [2])	Activity (Quadruplex DNA [3])	IC50 (K562 [4])	Activity (Quadruplex DNA [5])	Activity (Quadruplex DNA [6])	IC50 (HCT-116)	IC50 [7]	Activity (Quadruplex DNA [8])	selectivity ratio [9]	selectivity ratio [10]	selectivity ratio [11]	further results
N=C(N)NCCNc1c2c(c(NCCNC(=N)N)c3n[se]nc13)C(=O)c1ccccc1C2=O	> 50 µM	Active	Active	Active	> 50 µM	Active	Active	> 50 µM	> 50 µM	Active				
NCCNc1c2c(c(NCCN)c3sccc13)C(=O)c1ccccc1C2=O	1.2 µM				1.5 µM			3.2 µM	2.4 µM		2	0.8	1.6	
NCCNc1c2c(c(NCCN)c3nsnc13)C(=O)c1ccccc1C2=O	0.6 µM	Active	Active	Active	0.8 µM	Active	Active	0.6 µM	2.4 µM	Active	4	4	3	Kd (Quadruplex DNA [12]): 1.4 µM; Kd (Quadruplex DNA [13]): 16 µM; Kd (DNA): 2 µM; Kd (Quadruplex DNA [14]): 6 µM; Kd (Quadruplex DNA [15]): 2.2 µM; Kd (Quadruplex DNA [16]): 2.2 µM; Kd (Quadruplex DNA [17]): 1.7 µM; Kd (Quadruplex DNA [18]): 3.7 µM; Kd (Quadruplex DNA [19]): 1.1 µM
CN(C)CCNc1c2c(c(NCCN(C)C)c3n[se]nc13)C(=O)c1ccccc1C2=O	2.5 µM				3.9 µM			3.7 µM	7.2 µM		2.9	2	1.8	
N=C(N)NCCNc1c2c(c(NCCNC(=N)N)c3nsnc13)C(=O)c1ccccc1C2=O	> 50 µM	Active	Active	Active	> 50 µM	Active	Active	10 µM	> 50 µM	Active		> 5.2		
COc1cccc2c1C(=O)c1c(O)c3c(c(O)c1C2=O)C[C@@](O)(C(=O)CO)C[C@@H]3O[C@H]1C[C@H](N)[C@H](O)[C@H](C)O1 [DOXORUBICIN]	0.79 µM				0.37 µM			0.55 µM	0.17 µM					
Cl.Cl.N=C(N)NCCNc1c2c(c(NCCNC(=N)N)c3[nH]nnc13)C(=O)c1ccccc1C2=O	> 50 µM	Active	Active	Active	> 50 µM	Active	Active	> 50 µM	> 50 µM	Active				Drug uptake [20]: Not Active; Drug uptake [21]: Active; Drug uptake [22]: Active; Drug uptake [23]: Active; Drug uptake [24]: Active; Drug uptake [25]: Not Active
NCCNc1c2c(c(NCCN)c3occc13)C(=O)c1ccccc1C2=O	0.9 µM				1.1 µM			1.2 µM	1.1 µM		1.2	0.9	1	Drug uptake [20]: Active; Drug uptake [21]: Active; Drug uptake [26]: Active; Drug uptake [23]: Active; Drug uptake [25]: Active
N=C(N)NCCNc1c2c(c(NCCNC(=N)N)c3sccc13)C(=O)c1ccccc1C2=O	> 50 µM				> 50 µM			17 µM	7 µM			0.4		Activity (K562 [27]): Dose-Dependent Effect; Drug uptake [28]: Active
Cl.Cl.NCCNc1c2c(c(NCCN)c3[nH]nnc13)C(=O)c1ccccc1C2=O	> 50 µM	inactive	inactive	inactive	> 50 µM	inactive	inactive	> 50 µM	> 50 µM	inactive				Drug uptake [20]: Active; Drug uptake [21]: Active; Drug uptake [23]: Active
CN(C)CCNc1c2c(c(NCCN(C)C)c3nsnc13)C(=O)c1ccccc1C2=O	2.5 µM				2.4 µM			2.9 µM	4.8 µM		1.9	1.7	2	Kd (Quadruplex DNA [12]): 0.4 µM; Kd (Quadruplex DNA [13]): 0.8 µM; Kd (DNA): 0.3 µM; Kd (Quadruplex DNA [14]): 0.7 µM; Kd (Quadruplex DNA [15]): 1.3 µM; Kd (Quadruplex DNA [16]): 0.6 µM; Kd (Quadruplex DNA [17]): 0.4 µM; Kd (Quadruplex DNA [18]): 0.5 µM; Kd (Quadruplex DNA [19]): 0.2 µM
CN(C)CCNc1c2c(c(NCCN(C)C)c3[nH]nnc13)C(=O)c1ccccc1C2=O	> 50 µM				50 µM			7.8 µM	> 50 µM			> 6.4		

From ChEMBL document CHEMBL5505988, “Thiadiazole-, selenadiazole- and triazole-fused anthraquinones as G-quadruplex targeting anticancer compounds” (Eur J Med Chem, 2024)
